Test results as given in PubChem BioAssay AID328 (DTP/NCI, 2004).
“And” between values parts separate entries of the source, which are not always exact repeats. Equal values may be shown once. Toxic doses and inconclusive results are not listed.

Test system: BDF1 mice, P388 leukemia ip, median survival T/C
Assay: NCI In Vivo Anticancer Drug Screen. Data for tumor model P388 Leukemia (intraperitoneal) in B6D2F1 (BDF1) mice
Settings: endpoint: median survival time, higher = longer survival
Outline: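 T/C = treated-group survival ÷ vehicle-control survival; tumour transplanted into mice before dosing.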

[1] = dose: 12.5 mg/kg/injection, schedule: Q01DX009 (ip), vehicle: saline
[2] = dose: 25.0 mg/kg/injection, schedule: Q01DX009 (ip), vehicle: saline
[3] = dose: 50.0 mg/kg/injection, schedule: Q01DX009 (ip), vehicle: saline
[4] = dose: 25.0 mg/kg/injection, schedule: Q04DX003 (ip), vehicle: saline with Tween-80
[5] = dose: 50.0 mg/kg/injection, schedule: Q04DX003 (ip), vehicle: saline with Tween-80
[6] = dose: 100.0 mg/kg/injection, schedule: Q04DX003 (ip), vehicle: saline with Tween-80
[7] = dose: 100.0 mg/kg/injection, schedule: Q01DX009 (ip), vehicle: saline
[8] = dose: 12.5 mg/kg/injection, schedule: Q01DX009 (ip), vehicle: saline with Tween-80
[9] = dose: 25.0 mg/kg/injection, schedule: Q01DX009 (ip), vehicle: saline with Tween-80
[10] = dose: 50.0 mg/kg/injection, schedule: Q01DX009 (ip), vehicle: saline with Tween-80
[11] = dose: 100.0 mg/kg/injection, schedule: Q01DX009 (ip), vehicle: saline with Tween-80
[12] = dose: 100.0 mg/kg/injection, schedule: Q04DX003 (ip), vehicle: saline
[13] = dose: 200.0 mg/kg/injection, schedule: Q04DX003 (ip), vehicle: saline
[14] = dose: 50.0 mg/kg/injection, schedule: Q01DX001 (ip), vehicle: saline with Tween-80

In the case of `NNc1ncnc2c1ncn2C1OC(CO)C(O)C1O` (stereo not drawn), the T/C (dose: 7.5 mg/kg/injection, schedule: Q04DX003 (ip), vehicle: saline) is reported as 90 % of control, the T/C [1] is reported as 109 % of control and the T/C (dose: 15.0 mg/kg/injection, schedule: Q01DX010 (ip), vehicle: saline) is reported as 113 % of control. For the same compound, the T/C (dose: 15.0 mg/kg/injection, schedule: Q04DX003 (ip), vehicle: saline) was 105 % of control, the T/C [2] was 109 % of control and the T/C (dose: 30.0 mg/kg/injection, schedule: Q04DX003 (ip), vehicle: saline) was 105 % of control. For the same compound, the T/C [3] was 113 % of control, the T/C (dose: 60.0 mg/kg/injection, schedule: Q01DX010 (ip), vehicle: saline) was 154 % of control and the T/C (dose: 60.0 mg/kg/injection, schedule: Q04DX003 (ip), vehicle: saline) was 120 % of control. For the same compound, the T/C (dose: 120.0 mg/kg/injection, schedule: Q04DX003 (ip), vehicle: saline) was 105 % of control.
`c1ccc2c(c1)Sc1ccccc1N2Cc1cnc[nH]1` was tested, and the T/C [4] was 100 % of control, the T/C [5] was 104 % of control and the T/C [6] was 100 % of control. The T/C (dose: 200.0 mg/kg/injection, schedule: Q04DX003 (ip), vehicle: saline with Tween-80) was 109 % of control.
`NC(CCC(=O)c1ccccn1)C(=O)O` (stereo not drawn) was tested, and the T/C [1] was 103 % of control, the T/C [2] was 117 % of control and the T/C [3] was 98 % of control. The T/C [7] was 117 % of control.
In the case of `CCOC(=O)/C(N=O)=C(\O)c1ccc2ccccc2n1`, the T/C (dose: 3.12 mg/kg/injection, schedule: Q01DX009 (ip), vehicle: water) is reported as 106 % of control, the T/C (dose: 6.25 mg/kg/injection, schedule: Q01DX009 (ip), vehicle: water) is reported as 98 % of control and 99 % of control and 103 % of control and the T/C (dose: 12.5 mg/kg/injection, schedule: Q01DX009 (ip), vehicle: water) is reported as 111 % of control and 123 % of control. The T/C (dose: 25.0 mg/kg/injection, schedule: Q01DX009 (ip), vehicle: water) was 94 % of control and 104 % of control and 106 % of control, the T/C (dose: 25.0 mg/kg/injection, schedule: Q04DX003 (ip), vehicle: water) was 97 % of control and the T/C (dose: 50.0 mg/kg/injection, schedule: Q01DX009 (ip), vehicle: water) was 100 % of control and 103 % of control. For the same compound, the T/C (dose: 50.0 mg/kg/injection, schedule: Q04DX003 (ip), vehicle: water) was 120 % of control, the T/C (dose: 100.0 mg/kg/injection, schedule: Q01DX009 (ip), vehicle: water) was 99 % of control and the T/C (dose: 100.0 mg/kg/injection, schedule: Q04DX003 (ip), vehicle: water) was 105 % of control. For the same compound, the T/C (dose: 200.0 mg/kg/injection, schedule: Q01DX009 (ip), vehicle: water) was 91 % of control, the T/C (dose: 200.0 mg/kg/injection, schedule: Q04DX003 (ip), vehicle: water) was 97 % of control and the T/C (dose: 400.0 mg/kg/injection, schedule: Q01DX009 (ip), vehicle: water) was 110 % of control. For the same compound, the T/C (dose: 400.0 mg/kg/injection, schedule: Q04DX003 (ip), vehicle: water) was 92 % of control.
`O=[N+]([O-])c1ccc(S/N=C\c2ccccc2)c([N+](=O)[O-])c1` was tested, and the T/C [8] was 107 % of control, the T/C [9] was 105 % of control and the T/C [10] was 105 % of control.
`Cc1nc2nc(N)[nH]c(=O)c2[nH]1` was tested, and the T/C [9] was 112 % of control, the T/C [10] was 124 % of control and the T/C [11] was 104 % of control. For the same compound, the T/C [6] was 109 % of control.
With `Oc1ccccc1-c1nnc2sc3c(Cl)c4nn5c(-c6ccccc6O)nnc5sc4c(Cl)c3nn12` the T/C [10] was 98 % of control, the T/C [11] was 98 % of control and the T/C (dose: 200.0 mg/kg/injection, schedule: Q01DX009 (ip), vehicle: saline with Tween-80) was 96 % of control.
For `CCCNC1(C(N)=O)CCN(Cc2ccccc2)CC1`, the T/C [9] was 107 % of control, the T/C [4] was 104 % of control and the T/C [10] was 111 % of control. The T/C [5] was 86 % of control, the T/C [11] was 96 % of control and the T/C [6] was 95 % of control.
In the case of `O=CNC(Cc1ccc(O)cc1)C(=O)O` (stereo not drawn), the T/C [12] is reported as 110 % of control, the T/C [13] is reported as 100 % of control and the T/C (dose: 400.0 mg/kg/injection, schedule: Q04DX003 (ip), vehicle: saline) is reported as 100 % of control.
In the case of `O=[Se](=O)(c1ccccc1)c1ccccc1`, the T/C (dose: 100.0 mg/kg/injection, schedule: Q04DX002 (ip), vehicle: saline with Tween-80) is reported as 97 % of control, the T/C (dose: 200.0 mg/kg/injection, schedule: Q04DX002 (ip), vehicle: saline with Tween-80) is reported as 103 % of control and the T/C (dose: 400.0 mg/kg/injection, schedule: Q04DX002 (ip), vehicle: saline with Tween-80) is reported as 94 % of control.
`[NH-]C(CCC(N)=O)C(=O)O.[NH-]C(CCC(N)=O)C(=O)O.[Zn+2]` (stereo not drawn) was tested, and the T/C [8] was 91 % of control, the T/C [9] was 108 % of control and the T/C [10] was 121 % of control.
`COc1cc(OC)c(N=Cc2ccc3c(c2)OCO3)cc1Cl` was tested, and the T/C (dose: 100.0 mg/kg/injection, schedule: Q04DX003 (ip), vehicle: Klucel (hydroxypropylcellulose) (HPC)) was 100 % of control and the T/C (dose: 200.0 mg/kg/injection, schedule: Q04DX003 (ip), vehicle: Klucel (hydroxypropylcellulose) (HPC)) was 100 % of control.
In the case of `CCN(CC)C(=S)SSC(=S)N(CC)CC`, the T/C (dose: 75.0 mg/kg/injection, schedule: Q01DX001 (ip), vehicle: Klucel (hydroxypropylcellulose) (HPC)) is reported as 104 % of control, the T/C (dose: 150.0 mg/kg/injection, schedule: Q01DX001 (ip), vehicle: Klucel (hydroxypropylcellulose) (HPC)) is reported as 104 % of control and the T/C (dose: 300.0 mg/kg/injection, schedule: Q01DX001 (ip), vehicle: Klucel (hydroxypropylcellulose) (HPC)) is reported as 95 % of control.
For `O=C1C(c2ccccc2)=S=C2C=CC=CN12`, the T/C (dose: 12.5 mg/kg/injection, schedule: Q01DX001 (ip), vehicle: saline with Tween-80) was 109 % of control, the T/C (dose: 25.0 mg/kg/injection, schedule: Q01DX001 (ip), vehicle: saline with Tween-80) was 100 % of control and the T/C [14] was 87 % of control. For the same compound, the T/C (dose: 100.0 mg/kg/injection, schedule: Q01DX001 (ip), vehicle: saline with Tween-80) was 100 % of control.
In the case of `O=C(O)/C=C/C(=O)Nc1ccc(Cl)c(Cl)c1`, the T/C (dose: 25.0 mg/kg/injection, schedule: Q01DX009 (ip), vehicle: Klucel (hydroxypropylcellulose) (HPC)) is reported as 104 % of control, the T/C (dose: 50.0 mg/kg/injection, schedule: Q01DX009 (ip), vehicle: Klucel (hydroxypropylcellulose) (HPC)) is reported as 111 % of control and the T/C (dose: 100.0 mg/kg/injection, schedule: Q01DX009 (ip), vehicle: Klucel (hydroxypropylcellulose) (HPC)) is reported as 111 % of control.
For `CCc1ccc(C(=O)NN)cc1`, the T/C (dose: 6.25 mg/kg/injection, schedule: Q01DX009 (ip), vehicle: saline) was 100 % of control, the T/C [1] was 97 % of control and the T/C [2] was 103 % of control. The T/C (dose: 25.0 mg/kg/injection, schedule: Q04DX003 (ip), vehicle: saline) was 94 % of control, the T/C [3] was 100 % of control and the T/C (dose: 50.0 mg/kg/injection, schedule: Q04DX003 (ip), vehicle: saline) was 92 % of control. For the same compound, the T/C [7] was 124 % of control, the T/C [12] was 94 % of control and the T/C (dose: 200.0 mg/kg/injection, schedule: Q01DX009 (ip), vehicle: saline) was 90 % of control. For the same compound, the T/C [13] was 94 % of control.
With `O=[N+]([O-])c1ccccc1C(c1ccc2ccccc2c1O)N1CCOCC1` (stereo not drawn) the T/C (dose: 33.0 mg/kg/injection, schedule: Q01DX001 (ip), vehicle: saline with Tween-80) was 100 % of control, the T/C (dose: 50.0 mg/kg/injection, schedule: Q01DX001 (ip), vehicle: saline sonified) was 163 % of control and the T/C [14] was 100 % of control. For the same compound, the T/C (dose: 75.0 mg/kg/injection, schedule: Q01DX001 (ip), vehicle: saline with Tween-80) was 100 % of control, the T/C (dose: 100.0 mg/kg/injection, schedule: Q01DX001 (ip), vehicle: saline sonified) was 109 % of control and the T/C (dose: 200.0 mg/kg/injection, schedule: Q01DX001 (ip), vehicle: saline sonified) was 95 % of control.
For `O=C(O)c1cc2ccccc2o1`, the T/C [9] was 100 % of control, the T/C [10] was 104 % of control and the T/C [11] was 109 % of control.
In the case of `NNc1cc(N)[nH]n1`, the T/C [1] is reported as 106 % of control, the T/C [2] is reported as 100 % of control and the T/C [3] is reported as 100 % of control. The T/C [7] was 93 % of control.
`CN(c1ccccc1)P(=O)(N1CC1)N1CC1` was tested, and the T/C [4] was 172 % of control and the T/C (dose: 37.5 mg/kg/injection, schedule: Q04DX003 (ip), vehicle: saline with Tween-80) was 250 % of control.
`NC(=O)N/N=C(\CF)C(=O)O` was tested, and the T/C (dose: 6.0 mg/kg/injection, schedule: Q01DX009 (ip), vehicle: Klucel (hydroxypropylcellulose) (HPC)) was 105 % of control, the T/C (dose: 12.0 mg/kg/injection, schedule: Q01DX009 (ip), vehicle: Klucel (hydroxypropylcellulose) (HPC)) was 105 % of control and the T/C (dose: 24.0 mg/kg/injection, schedule: Q01DX009 (ip), vehicle: Klucel (hydroxypropylcellulose) (HPC)) was 115 % of control. The T/C (dose: 48.0 mg/kg/injection, schedule: Q01DX009 (ip), vehicle: Klucel (hydroxypropylcellulose) (HPC)) was 105 % of control.
`CC(=O)C(c1ccccc1)[N+](C)(C)C` (stereo not drawn) was tested, and the T/C (dose: 100.0 mg/kg/injection, schedule: Q04DX003 (ip), vehicle: other) was 108 % of control.
